“And” between values parts separate entries of the source, which are not always exact repeats. Identical values can stand only once.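 Exposure lasted 48 hours, with cells grown in 96-well plates and compounds tested at five concentrations. At the GI50, growth is halved. TGI: total growth inhibition.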
How the values were obtained:
Test in all cases: growth of human tumour cells (NCI), 48 h
[1] = test system: SF-268 CNS
[2] = test system: MDA-MB-231 breast
[3] = test system: SN12C renal
[4] = test system: U251 CNS
[5] = test system: NCI-H460 lung
[6] = test system: SK-MEL-28 melanoma
[7] = test system: BT-549 breast
[8] = test system: UACC-62 melanoma
[9] = test system: HCC-2998 colon
[10] = test system: HOP-92 NSCLC

Row | Structure (SMILES) | GI50 [1] [µM] | TGI [1] [µM] | GI50 [2] [µM] | TGI [2] | GI50 [3] [µM] | TGI [3] | GI50 [4] [µM] | TGI [4] | GI50 [5] [µM] | TGI [5] | GI50 [6] [µM] | TGI [6] [µM] | GI50 [7] [µM] | TGI [7] | GI50 [8] [µM] | TGI [8] | GI50 [9] [µM] | TGI [9] | GI50 [10] [µM] | TGI [10]
1 | CCC[CH2][Sn]1([CH2]CCC)[O]C(=O)c2ccc(N)cc2[O]1 | 0.259 | 1.5 | 0.185 | 1.42 µM | 0.88 | 2.37 µM | 0.471 | 1.81 µM | 1.73 | 4.21 µM | 0.397 | 1.48 | 0.15 | 0.985 µM | 0.364 | 1.83 µM | 0.855 | 2.48 µM | 0.149 | 0.988 µM
2 | COc1ccc(NC(=O)n2nc(/C=C\c3ccc(O)c(OC)c3)cc2/C=C\c2ccc(O)c(OC)c2)cc1 | 3.21 | 36.4 | 4.94 | 83.5 µM | 3.05 | 33.7 µM | 3.55 | 20.9 µM | 4.24 | 31.4 µM | 3.52 | 92.7 | 2.49 | 29.5 µM | 2.14 | 6.91 µM | 5.78 | > 100 µM | 7.77 | > 100 µM
3 | Clc1ccc2ns[s+]c2c1 | – | > 100 | – | > 100 µM | – | > 100 µM | – | > 100 µM | – | > 100 µM | – | > 100 | – | > 100 µM | – | > 100 µM | – | > 100 µM | – | > 100 µM
4 | CNCCNc1nc2ccccc2c2c(=O)c3cc(OC)ccc3sc12 | 1.64 | 3.39 | 1.54 | 3.08 µM | 1.5 | 2.96 µM | 1.5 | 2.92 µM | 1.71 | 3.25 µM | 1.84 | 3.34 | 1.59 | 3.11 µM | 1.69 | 3.13 µM | 1.47 | 2.9 µM | 1.29 | 3.32 µM
5 | COC(=O)[C@H]1[C@H]2C[C@@H]3c4[nH]c5cc(OC)ccc5c4CCN3C[C@H]2C[C@@H](OC(=O)/C=C/c2cc(OC)c(OC)c(OC)c2)[C@@H]1OC | 9.48 | > 100 | 10.6 | 41.8 µM | 4.56 | > 100 µM | 3.58 | 14.6 µM | 4.82 | > 100 µM | 12.6 | 28 | 11.6 | 24.6 µM | 14.5 | 33.4 µM | 24.2 | > 100 µM | 2.85 | 17.4 µM
6 | CC(=O)c1cccc(-c2cccc(-c3ccn(CCN4CCOCC4)n3)c2)c1 | > 20 | > 20 | > 20 | > 20 µM | > 20 | > 20 µM | > 20 | > 20 µM | > 20 | > 20 µM | > 20 | > 20 | > 20 | > 20 µM | > 20 | > 20 µM | > 20 | > 20 µM | 16.2 | > 20 µM
7 | Nc1cc2[nH]cnc2c(=O)[nH]1 | – | > 300 | – | > 300 µM | – | > 300 µM | – | > 300 µM | – | > 300 µM | – | > 300 | – | > 300 µM | – | > 300 µM | – | > 300 µM | – | > 300 µM
8 | CCCCCCNC(=O)Oc1ccc(/C(=C(/C)Cc2ccc(OC)cc2)c2ccc(OCCN(C)C)cc2)cc1 | 5.07 | 10.9 | 5 | 9.65 µM | 4.84 | 9.44 µM | 3.61 | 7.9 µM | 4.22 | 8.93 µM | 3.88 | 8.06 | 5.11 | 9.86 µM | 4.44 | 8.72 µM | 3.82 | 8.43 µM | 3.49 | 7.9 µM
9 | COC(=O)[C@]1(C)CCC[C@@]2(C)[C@@H]3C[C@@H]4[C@H]5C[C@@]3(CC[C@@H]21)C[C@@]45C | – | 31.8 | – | 29.9 µM | – | 33.5 µM | – | 63.7 µM | – | – | – | 47.1 | – | 30.2 µM | – | 28 µM | – | 31 µM | – | 29.4 µM
10 | CCOC(=O)Nc1nc2cc(OCC)ccc2s1 | > 79.7 | > 100 | > 100 | > 100 µM | > 84.4 | > 100 µM | 26.8 | > 100 µM | 8.02 | > 100 µM | > 100 | > 100 | > 100 | > 100 µM | 58.3 | > 100 µM | > 41.3 | > 100 µM | > 100 | > 100 µM
11 | CCCCCCNC(=O)n1cc(F)c(=O)[nH]c1=O | 9.07 | 87.9 | 10.2 | 24.5 µM | 4.29 | 24.3 µM | 4.27 | 17.5 µM | 0.564 | 17.7 µM | 3.96 | 27.7 | 2.56 | 24.9 µM | 2.8 | 25 µM | 0.287 | 18.4 µM | 14.8 | 50 µM
12 | C/C=C(/C)c1cnc(CC(C)C)c(=O)[nH]1 | – | > 100 | – | > 100 µM | – | > 100 µM | – | > 100 µM | – | > 100 µM | – | > 100 | – | > 100 µM | – | > 100 µM | – | > 100 µM | – | > 100 µM
13 | CC(=O)c1cc(-c2ccccc2N)n(-c2ccc3c(c2)OCO3)c1C | 0.4 | > 100 | 0.134 | > 77 µM | 0.135 | > 100 µM | 0.277 | > 100 µM | 0.169 | 13.2 µM | 2.34 | > 73.9 | 0.575 | 9.9 µM | 0.227 | 23 µM | 0.304 | 16.3 µM | 0.149 | 24.8 µM
14 | COc1cc2c(c(OC)c1OC)-c1ccc(O)c(=O)cc1[C@@H](NC(C)=O)CC2 | 7.42 | > 100 | 4.7 | > 100 µM and 41.7 µM | 7.93 | 88.2 µM and 35 µM | 5.93 | > 100 µM and 35.4 µM | 3.9 | > 100 µM and 28.6 µM | 7.48 | > 100 | 24 | > 100 µM and 39.4 µM | 3.82 | 18.1 µM and 30 µM | 7.95 | > 100 µM and 34.4 µM | 9.92 | > 100 µM and 58.3 µM

Reference: PubChem BioAssay (NCI)
